Test results published in patent US6620593B1, “Method for safety evaluation of chemical compound using recombinant yeast expressing human cytochrome P450” (Sumitomo Chemical Company, Limited, priority 1993, dated 2003).
Like-named read-outs stand apart in the source and are kept apart here.

Assays:
human P450 2E1 [1] = biological target: T1, human P450 2E1 (Homo sapiens, UniProt P05181); test: Ames test using yeast S-9 Mix fraction and microsomal fraction, human P450 2E1 as metabolic activation source; format: cell-based
Text: (§1) The toxic effects, in particular mutagenicity, of the resulting metabolites can be determined by a conventional biological analytic method such as the Ames Test. For example, the metabolites present in the reaction solution are allowed to react with mutant bacteria such as histidine requiring Salmonella strain (Salmonella typhimurium (his−)), or tryptophan requiring Escherichia coil (Escherichia coil (trp−)), and then determine whether the metabolites cause the back mutation of the bacteria whether the colonies of revertant which is not requiring the amino acid (His+ or Trp+) are formed, and, if formed, how many colonies. In place of the bacteria, mammalian cells such as MCL-5 cells, which are sensitive to cell toxicity of a chemical compound (U.S. Pat. No. 4,532,204), can be used.
(§2) The Ames test method was in accordance with the customary method described, for example, in Mutat. Res., (1975) 31, 347. 2-Aminoanthrathene which is an arylamine type compound was used as a specimen compound. (1) Rat S-9 Mix supernatant fraction (obtained by homogenizing liver and then subjected to centrifugation (9000×g, 10 min), manufactured by Kikkoman) containing each kind of rat P450 molecular species at the concentration of 1200 pmol per 1 sample and (2) Yeast S-9 Mix fraction obtained from each kind of yeast cells expressing human P450 or a microsomal fraction prepared from the yeast S-9 Mix fraction were used as a metabolic activation source in the Ames test.

human P450 1A2 [2] = biological target: T2, human P450 1A2 (Homo sapiens, UniProt P05177); test: Ames test using yeast S-9 Mix fraction and microsomal fraction, human P450 1A2 as metabolic activation source; format: cell-based; design: made in house; host or cells: Saccharomyces cerevisiae AH22 (whole transformed cells, S-9 Mix or microsomal fractions)
T2 sequence (P05177 1-516): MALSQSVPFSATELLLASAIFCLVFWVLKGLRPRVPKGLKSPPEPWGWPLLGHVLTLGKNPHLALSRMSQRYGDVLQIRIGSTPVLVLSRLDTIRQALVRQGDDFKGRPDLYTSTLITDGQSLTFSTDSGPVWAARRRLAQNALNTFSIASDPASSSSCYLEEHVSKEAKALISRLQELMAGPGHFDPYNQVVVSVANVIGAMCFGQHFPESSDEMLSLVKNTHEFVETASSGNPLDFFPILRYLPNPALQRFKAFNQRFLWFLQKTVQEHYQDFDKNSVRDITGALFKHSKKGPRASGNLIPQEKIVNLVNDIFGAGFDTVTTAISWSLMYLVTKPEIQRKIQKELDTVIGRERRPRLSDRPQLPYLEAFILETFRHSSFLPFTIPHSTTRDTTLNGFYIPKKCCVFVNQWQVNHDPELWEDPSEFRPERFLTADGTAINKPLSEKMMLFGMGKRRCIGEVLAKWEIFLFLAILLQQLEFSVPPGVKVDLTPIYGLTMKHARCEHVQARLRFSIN
Text: as §1, §2

[3] = test system: human cytochrome P450 3A4; test: Ames test using yeast S-9 Mix fraction and microsomal fraction, human P450 3A4 as metabolic activation source; format: cell-based
Text: as §1
(§3) The Ames test method was in accordance with the customary method described, for example, in Mutat. Res., (1975) 31, 347. 2-Aminoanthrathene which is an arylamine type compound was used as a specimen compound. […]

[4] = test system: human cytochrome P450 2A6; test: Ames test using yeast S-9 Mix fraction and microsomal fraction, human P450 2A6 as metabolic activation source; format: cell-based
Text: as §1, §3

[5] = biological target: T3, human cytochrome P450 2C8 (Homo sapiens, UniProt P10632); test: Ames test using yeast S-9 Mix fraction and microsomal fraction, human P450 2C8 as metabolic activation source; format: cell-based
T3 construct: The entire protein coding region of the P450 2C8 gene was amplified by the PCR method; made in house; host or cells: Saccharomyces cerevisiae AH22 (whole transformed cells, S-9 Mix or microsomal fractions)
T3 sequence (P10632 1-490): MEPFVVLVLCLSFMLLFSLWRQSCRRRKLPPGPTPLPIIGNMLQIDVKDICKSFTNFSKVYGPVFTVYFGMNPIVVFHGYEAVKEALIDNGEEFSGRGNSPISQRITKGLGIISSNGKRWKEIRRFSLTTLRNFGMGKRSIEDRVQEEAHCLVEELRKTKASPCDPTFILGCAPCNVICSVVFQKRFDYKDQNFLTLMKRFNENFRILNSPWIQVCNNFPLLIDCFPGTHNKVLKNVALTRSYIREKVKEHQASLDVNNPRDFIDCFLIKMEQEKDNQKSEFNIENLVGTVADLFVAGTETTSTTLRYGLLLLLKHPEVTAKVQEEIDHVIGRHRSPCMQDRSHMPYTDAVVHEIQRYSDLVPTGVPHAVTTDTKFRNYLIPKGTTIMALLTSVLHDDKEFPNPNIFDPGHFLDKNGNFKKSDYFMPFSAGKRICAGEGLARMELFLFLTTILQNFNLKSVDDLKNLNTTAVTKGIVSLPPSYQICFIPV
Text: as §1, §3

human P450 2E1 [6] = biological target: T1, human P450 2E1; test: Metabolism (hydroxylation) of substrates using transformed yeast cells or microsomal fractions expressing human P450 2E1; conditions: microsomes
Method: (§4) Then 2 ml of dichloromethane was added.

human P450 1A2 [7] = biological target: T2, human P450 1A2; test: Metabolism (hydroxylation) of substrates using transformed yeast cells or their microsomal fractions expressing human P450 1A2 and yeast NADPH-P450 reductase; conditions: microsomes
Method: as §4

human P450 2B6 = biological target: T4, human P450 2B6 (Homo sapiens, UniProt P20813); test: Metabolism (hydroxylation) of substrates using transformed yeast cells or microsomal fractions expressing human P450 2B6; conditions: microsomes
T4 sequence (P20813 1-491): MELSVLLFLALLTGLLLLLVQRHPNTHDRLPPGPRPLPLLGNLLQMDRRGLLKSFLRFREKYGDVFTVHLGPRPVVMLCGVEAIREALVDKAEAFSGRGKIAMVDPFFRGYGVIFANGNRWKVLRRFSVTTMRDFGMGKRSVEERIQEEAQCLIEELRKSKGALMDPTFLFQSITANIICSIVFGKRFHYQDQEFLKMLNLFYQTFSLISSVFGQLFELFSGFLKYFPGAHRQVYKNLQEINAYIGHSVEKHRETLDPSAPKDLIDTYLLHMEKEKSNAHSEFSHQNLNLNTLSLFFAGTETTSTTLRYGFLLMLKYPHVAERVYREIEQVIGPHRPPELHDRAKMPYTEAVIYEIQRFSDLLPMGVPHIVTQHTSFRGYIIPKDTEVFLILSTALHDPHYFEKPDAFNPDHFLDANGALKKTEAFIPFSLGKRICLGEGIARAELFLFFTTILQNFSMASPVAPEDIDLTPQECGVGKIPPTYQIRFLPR
Method: as §4

human P450 2C18 = biological target: T5, human P450 2C18 (Homo sapiens, UniProt P33260); test: Metabolism (hydroxylation) of substrates using transformed yeast cells or microsomal fractions expressing human P450 2C18; conditions: microsomes
T5 sequence (P33260 26-490): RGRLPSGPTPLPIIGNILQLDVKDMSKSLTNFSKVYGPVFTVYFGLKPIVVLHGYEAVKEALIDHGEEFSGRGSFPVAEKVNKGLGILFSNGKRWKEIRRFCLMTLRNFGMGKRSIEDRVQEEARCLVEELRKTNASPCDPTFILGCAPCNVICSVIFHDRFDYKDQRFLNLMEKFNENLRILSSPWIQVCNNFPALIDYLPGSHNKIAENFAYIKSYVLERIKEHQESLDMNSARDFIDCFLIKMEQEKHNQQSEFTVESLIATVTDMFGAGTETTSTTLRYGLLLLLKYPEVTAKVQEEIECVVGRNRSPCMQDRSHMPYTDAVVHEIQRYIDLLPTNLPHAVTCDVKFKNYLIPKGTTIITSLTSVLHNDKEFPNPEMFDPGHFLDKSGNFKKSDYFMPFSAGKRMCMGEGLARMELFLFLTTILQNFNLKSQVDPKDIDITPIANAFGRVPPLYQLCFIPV
Method: as §4

human P450 2D6 = test: Metabolism (hydroxylation) of substrates using transformed yeast cells or microsomal fractions expressing human P450 2D6; conditions: microsomes
Method: as §4

human P450 1A1 = biological target: T6, human P450 1A1 (Homo sapiens, UniProt P04798); conditions: microsomes
T6 sequence (P04798 1-512): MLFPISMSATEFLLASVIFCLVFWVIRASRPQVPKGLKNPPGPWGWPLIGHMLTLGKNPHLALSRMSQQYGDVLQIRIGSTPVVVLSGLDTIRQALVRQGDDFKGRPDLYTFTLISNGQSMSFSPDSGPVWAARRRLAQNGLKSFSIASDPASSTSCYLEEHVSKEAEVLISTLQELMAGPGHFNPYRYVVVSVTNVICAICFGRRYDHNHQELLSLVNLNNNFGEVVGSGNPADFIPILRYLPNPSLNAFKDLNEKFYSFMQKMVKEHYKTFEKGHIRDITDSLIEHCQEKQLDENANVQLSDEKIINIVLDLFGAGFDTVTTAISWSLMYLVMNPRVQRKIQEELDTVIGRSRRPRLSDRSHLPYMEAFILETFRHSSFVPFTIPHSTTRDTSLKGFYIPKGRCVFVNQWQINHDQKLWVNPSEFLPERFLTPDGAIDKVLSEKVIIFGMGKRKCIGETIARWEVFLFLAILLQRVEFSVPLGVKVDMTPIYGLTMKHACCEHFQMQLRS
Method: (§5) To the supernatant, 2 ml of dichloromethane was added. After sufficient stirring, the dichloromethane layer was recovered by centrifugation (5000×g, 10 min), and the solvent was evaporated under reduced pressure. The resultant residue was dissolved in 100 μl of acetonitrile, and the solution was analyzed by HPLC under the following conditions.
(§6) Then 2 ml of dichloromethane was added. After sufficient stirring, the solution was centrifuged again (5000×g, 10 min). The dichloromethane layer was recovered from the separated layer and the solvent was evaporated under reduced pressure. The resultant residue was dissolved in 100 μl of acetonitrile, and the solution was analyzed by HPLC under the following conditions.
Then 2 ml of dichloromethane was added to the supernatant and vigorously stirred and centrifuged (5000×g, 10 min). The dichloromethane layer was recovered from the separated layer, then evaporated under reduced pressure. The obtained residue was dissolved in 100 μl of acetonitrile, and the solution was analyzed by HPLC under the following conditions.
Then 2 ml of dichloromethane was added to the solution, and the solution was stirred vigorously and centrifuged (15,000×g, 5 min). The dichloromethane layer was recovered, and the solvent was removed under reduced pressure. The obtained residue was dissolved in 100 μl of acetonitrile and the solution was subjected to analysis by HPLC under the same conditions as above.
Then the solution was centrifuged (5000×g, 10 min) to give a supernatant. The obtained supernatant solution was subjected to the HPLC analysis under the following conditions.
(§7) Then the solution was centrifuged (5000×g, 10 min) to give a supernatant. 62.5 μl of 15% trichloroacetic acid and 2 ml of chloroform were added to the obtained supernatant solution, and the resultant solution was stirred well. The chloroform layer was recovered from the separated layer. Then 4 ml of sodium hydroxide solution containing 0.1 M NaCl was added to the solution and centrifuged again (5000×g, 10 min).
Then perchlorate was added to the solution, so that the final concentration of the perchlorate was 10% (v/v). The solution was sufficiently stirred and centrifuged (15,000×g, 15 min) to give the supernatant. The obtained supernatant was subjected to HPLC analysis according to the following conditions.
Then the solution was diluted with equal volume of methanol, sufficiently stirred and centrifuged (15,000×g, 5 min) to give the supernatant. The obtained supernatant was subjected to HPLC analysis according to the following conditions.

human P450 2A6 = test: Metabolism (hydroxylation) of substrates using transformed yeast cells or microsomal fractions expressing human P450 2A6; conditions: microsomes
Method: as §4

human P450 3A4 = test: Metabolism (hydroxylation) of substrates using transformed yeast cells or microsomal fractions expressing human P450 3A4; conditions: microsomes
Method: as §4

human P450 2C8 = test: Metabolism (hydroxylation) of substrates using transformed yeast cells or microsomal fractions expressing human P450 2C8; conditions: microsomes
Method: as §4

human P450 2C19 = human P450 2C19 (Homo sapiens, UniProt P33261); test: Metabolism (hydroxylation) of substrates using transformed yeast cells or microsomal fractions expressing human P450 2C19; conditions: microsomes
Method: as §4

human P450 2C9 = human P450 2C9 (Homo sapiens, UniProt P11712); test: Metabolism (hydroxylation) of substrates using transformed yeast cells or microsomal fractions expressing human P450 2C9; conditions: microsomes
Method: as §4

[8] = test system: other human P450 molecular species
Method: as §5, §6, §7
Then perchlorate was added to the solution, so that the final concentration of the perchlorate was 10% (v/v). The solution was sufficiently stirred and centrifuged (15,000×g, 15 min) to give the supernatant. […]

[9] = Table 1 hydroxylation activity, metabolic activation in Ames test
[10] = compound at 1 μg/plate (90 mm dia.), yeast S-9 Mix fraction and microsomal fraction

Chain of human P450 2C9 (P11712 whole entry): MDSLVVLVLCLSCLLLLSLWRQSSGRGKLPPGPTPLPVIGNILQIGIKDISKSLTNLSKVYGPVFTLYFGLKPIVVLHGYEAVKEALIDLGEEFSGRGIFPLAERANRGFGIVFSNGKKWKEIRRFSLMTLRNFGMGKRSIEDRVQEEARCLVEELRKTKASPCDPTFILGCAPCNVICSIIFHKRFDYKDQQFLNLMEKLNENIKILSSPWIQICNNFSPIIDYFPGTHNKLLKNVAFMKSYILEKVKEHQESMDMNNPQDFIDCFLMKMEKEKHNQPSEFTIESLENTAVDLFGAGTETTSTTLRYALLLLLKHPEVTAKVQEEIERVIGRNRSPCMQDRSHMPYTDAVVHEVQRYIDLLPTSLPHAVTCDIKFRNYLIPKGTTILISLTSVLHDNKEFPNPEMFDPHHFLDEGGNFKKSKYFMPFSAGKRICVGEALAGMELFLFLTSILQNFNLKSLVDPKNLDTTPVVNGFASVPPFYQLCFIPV
T1 sequence (P05181 whole entry): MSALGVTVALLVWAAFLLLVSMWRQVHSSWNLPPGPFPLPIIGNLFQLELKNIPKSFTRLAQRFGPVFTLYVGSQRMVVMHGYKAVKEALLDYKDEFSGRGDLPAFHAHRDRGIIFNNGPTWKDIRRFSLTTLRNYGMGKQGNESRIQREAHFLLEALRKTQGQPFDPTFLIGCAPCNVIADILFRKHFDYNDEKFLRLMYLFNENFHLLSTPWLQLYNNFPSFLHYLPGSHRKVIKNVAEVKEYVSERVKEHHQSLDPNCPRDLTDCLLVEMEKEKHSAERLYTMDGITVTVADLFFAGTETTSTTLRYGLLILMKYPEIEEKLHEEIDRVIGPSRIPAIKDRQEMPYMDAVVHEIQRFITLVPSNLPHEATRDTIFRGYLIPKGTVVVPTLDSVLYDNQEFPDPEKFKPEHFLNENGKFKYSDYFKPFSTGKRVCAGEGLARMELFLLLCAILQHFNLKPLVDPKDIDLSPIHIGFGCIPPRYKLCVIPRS
Chain of human P450 2C19 (P33261 whole entry): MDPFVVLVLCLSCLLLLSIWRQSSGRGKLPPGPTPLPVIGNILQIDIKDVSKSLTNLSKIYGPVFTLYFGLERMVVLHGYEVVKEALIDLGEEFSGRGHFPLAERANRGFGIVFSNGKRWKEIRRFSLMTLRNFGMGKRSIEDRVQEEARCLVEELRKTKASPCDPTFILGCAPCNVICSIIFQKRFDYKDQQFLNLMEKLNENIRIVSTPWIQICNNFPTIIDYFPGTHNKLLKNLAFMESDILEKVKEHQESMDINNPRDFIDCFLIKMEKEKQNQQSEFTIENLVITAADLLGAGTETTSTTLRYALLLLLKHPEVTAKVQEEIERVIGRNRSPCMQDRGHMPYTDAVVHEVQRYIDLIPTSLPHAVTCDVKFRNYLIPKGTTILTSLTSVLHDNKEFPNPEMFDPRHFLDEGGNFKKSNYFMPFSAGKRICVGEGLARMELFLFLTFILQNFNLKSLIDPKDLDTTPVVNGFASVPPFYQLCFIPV

SMILES	Hydroxylation activity, human P450 2E1 (human P450 2E1 [6])	Hydroxylation activity, human P450 1A2 (human P450 1A2 [7])	Hydroxylation activity, human P450 2B6 (human P450 2B6)	Hydroxylation activity, human P450 2C18 (human P450 2C18)	Hydroxylation activity, human P450 2D6 (human P450 2D6)	Hydroxylation activity, human P450 1A1 (human P450 1A1)	Hydroxylation activity, human P450 2A6 (human P450 2A6)	Hydroxylation activity, human P450 3A4 (human P450 3A4)	Hydroxylation activity, human P450 2C8 (human P450 2C8)	Hydroxylation activity, human P450 2C19 (human P450 2C19)	Hydroxylation activity, human P450 2C9 (human P450 2C9)	further results
Nc1ccc2cc3ccccc3cc2c1 [2-Aminoanthracene]												Ames test activity in words, human P450 2E1 (human P450 2E1 [1]): moderate activity; Activity in Table 1 for 2-aminoanthracene (Ames test), human P450 2E1 (human P450 2E1 [1]; [9]): + +; Revertant colonies detected, yeast expressing human P450 2E1 (AH22/p2E1R) (human P450 2E1 [1]; [10]): more than 1000 revertant colonies; Ames test activity in words, human cytochrome P450 1A2 (human P450 1A2 [2]): high activity; Concentration at which mutagenicity can be detected (human P450 1A2 [2]; 20 pmol of P450 1A2 used): about 0.1 μg; Activity in Table 1 for 2-aminoanthracene (Ames test), human P450 1A2 (human P450 1A2 [2]; [9]): + + +; Revertant colonies detected, yeast expressing human P450 1A2 (AH22/p1A2R) (human P450 1A2 [2]; [10]): more than 1000 revertant colonies; Ames test revertant colonies in words, human cytochrome P450 3A4 [3]: not found; Activity in Table 1 for 2-aminoanthracene (Ames test), human P450 3A4 [3, 9]: −; Ames test revertant colonies in words, human cytochrome P450 2A6 [4]: not found; Activity in Table 1 for 2-aminoanthracene (Ames test), human P450 2A6 [4, 9]: −; Ames test revertant colonies in words, human cytochrome P450 2C8 [5]: not found; Activity in Table 1 for 2-aminoanthracene (Ames test), human P450 2C8 [5, 9]: −
CCOc1ccc2ccc(=O)oc2c1 [7-Ethoxycoumarin]	+ +	+ +	+ + +	+	+ +	+ + +	+ +	+	+	+	+	
CC(=O)Nc1ccccc1 [Acetanilide]	+ +	+ + +	+ +	+ +	+ + +	+ +	+ +	+	+ +	+ +	+ +	
O=c1ccc2ccccc2o1 [Coumarin]	−	−	−	−	−	−	+ + +	−	−	−	−	Hydroxylated metabolite / hydroxylation activity with yeast expressing other human P450 than those named [8]: no activity
CCCCNC(=O)NS(=O)(=O)c1ccc(C)cc1 [Tolbutamide]	−	−	−	+	−	−	−		+	+ +		Hydroxylated metabolite / hydroxylation activity with yeast expressing other human P450 than those named ([8]; microsomes): not detected
